Assay results from patent US8871753B2, “Macrocyclic compounds and their use as kinase inhibitors” (Incyte Corporation, priority 2008, dated 2014).
Counter-ions that a name gives are not always drawn. Like-named read-outs stand apart in the source and are kept apart here.

Experiments:
Format in all cases: biochemical
[1] = molecular target: T1, human JAK3 (a.a. 781-1124) (Homo sapiens, UniProt P52333); assay: In vitro JAK kinase assay (HTRF, phosphorylation of a biotinylated peptide), JAK3
T1 construct: JAK3 (a.a. 781-1124); His tag (N); made in house; host or cells: insect cells (baculovirus)
T1 sequence (P52333 781-1124): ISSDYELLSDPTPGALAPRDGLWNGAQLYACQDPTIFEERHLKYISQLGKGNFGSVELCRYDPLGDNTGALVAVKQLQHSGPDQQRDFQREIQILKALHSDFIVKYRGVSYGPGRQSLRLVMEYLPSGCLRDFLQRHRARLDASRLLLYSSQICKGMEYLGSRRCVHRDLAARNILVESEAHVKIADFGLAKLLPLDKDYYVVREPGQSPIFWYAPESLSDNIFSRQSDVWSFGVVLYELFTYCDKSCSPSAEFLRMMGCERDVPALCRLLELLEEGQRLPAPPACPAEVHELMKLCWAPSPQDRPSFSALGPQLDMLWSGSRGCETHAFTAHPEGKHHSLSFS
Summary of the method: (§1)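 Kinase activity was measured as phosphorylation of a biotinylated peptide, with ATP at 90 μM for JAK1, 30 μM for JAK2 and 3 μM for JAK3. Reactions ran 1 hr at room temperature, were stopped with EDTA plus SA-APC and Eu-Py20, and were read by HTRF after 40 minutes of antibody binding.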

[2] = molecular target: T2, human JAK1 (a.a. 837-1142) (Homo sapiens, UniProt P23458); assay: In vitro JAK kinase assay (HTRF, phosphorylation of a biotinylated peptide), JAK1; conditions: read-out: JAK1 IC50
T2 construct: human JAK1 (a.a. 837-1142); His tag (N); made in house; host or cells: insect cells (baculovirus)
T2 sequence (P23458 849-1154): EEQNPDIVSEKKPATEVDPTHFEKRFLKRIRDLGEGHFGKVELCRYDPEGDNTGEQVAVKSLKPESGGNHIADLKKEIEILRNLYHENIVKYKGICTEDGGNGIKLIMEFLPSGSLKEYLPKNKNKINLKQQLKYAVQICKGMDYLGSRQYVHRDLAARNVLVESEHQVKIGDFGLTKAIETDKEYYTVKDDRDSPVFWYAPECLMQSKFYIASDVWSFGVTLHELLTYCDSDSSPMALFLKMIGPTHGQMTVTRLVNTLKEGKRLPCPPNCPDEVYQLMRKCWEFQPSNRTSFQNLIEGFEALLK
Summary of the method: as §1

[3] = molecular target: TYK2 (Homo sapiens, UniProt P29597); assay: TYK2 kinase inhibition (Table A1)
Chain of TYK2 (P29597 whole entry): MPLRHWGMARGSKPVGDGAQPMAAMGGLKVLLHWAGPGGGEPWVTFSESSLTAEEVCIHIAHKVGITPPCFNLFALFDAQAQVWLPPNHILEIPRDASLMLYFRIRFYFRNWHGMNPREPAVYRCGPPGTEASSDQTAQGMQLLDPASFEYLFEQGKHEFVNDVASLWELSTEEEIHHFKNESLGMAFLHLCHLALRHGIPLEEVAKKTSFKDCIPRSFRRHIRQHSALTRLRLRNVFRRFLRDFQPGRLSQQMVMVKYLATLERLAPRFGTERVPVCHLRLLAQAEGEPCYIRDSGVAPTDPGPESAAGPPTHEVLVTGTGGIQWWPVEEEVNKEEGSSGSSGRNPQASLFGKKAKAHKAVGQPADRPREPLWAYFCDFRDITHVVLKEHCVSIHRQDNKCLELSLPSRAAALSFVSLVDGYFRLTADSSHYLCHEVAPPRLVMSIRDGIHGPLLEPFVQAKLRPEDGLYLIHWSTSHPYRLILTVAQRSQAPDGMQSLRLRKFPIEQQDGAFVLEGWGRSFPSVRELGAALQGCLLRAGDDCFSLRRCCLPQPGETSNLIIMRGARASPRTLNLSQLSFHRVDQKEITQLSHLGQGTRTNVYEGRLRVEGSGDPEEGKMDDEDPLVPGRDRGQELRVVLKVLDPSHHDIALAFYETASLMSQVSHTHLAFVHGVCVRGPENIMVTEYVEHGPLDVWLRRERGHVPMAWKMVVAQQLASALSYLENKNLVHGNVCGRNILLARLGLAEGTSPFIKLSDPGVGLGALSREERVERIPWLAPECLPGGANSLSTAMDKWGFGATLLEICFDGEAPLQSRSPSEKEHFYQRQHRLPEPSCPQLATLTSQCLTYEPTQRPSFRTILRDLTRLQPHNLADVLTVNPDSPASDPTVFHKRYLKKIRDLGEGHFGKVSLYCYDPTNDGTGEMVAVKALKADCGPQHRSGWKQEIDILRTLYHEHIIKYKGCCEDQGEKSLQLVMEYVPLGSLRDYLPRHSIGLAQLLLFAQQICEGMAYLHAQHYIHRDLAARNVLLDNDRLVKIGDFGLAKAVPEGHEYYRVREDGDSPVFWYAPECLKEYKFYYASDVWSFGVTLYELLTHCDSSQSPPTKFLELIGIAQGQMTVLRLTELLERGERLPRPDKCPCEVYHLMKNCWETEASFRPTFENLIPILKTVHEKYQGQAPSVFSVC

[4] = molecular target: T3, human JAK2 (a.a. 828-1132) (Homo sapiens, UniProt O60674); assay: In vitro JAK kinase assay (HTRF, phosphorylation of a biotinylated peptide), JAK2
T3 construct: JAK2 (a.a. 828-1132); His tag (N); made in house; host or cells: insect cells (baculovirus)
T3 sequence (O60674 828-1132): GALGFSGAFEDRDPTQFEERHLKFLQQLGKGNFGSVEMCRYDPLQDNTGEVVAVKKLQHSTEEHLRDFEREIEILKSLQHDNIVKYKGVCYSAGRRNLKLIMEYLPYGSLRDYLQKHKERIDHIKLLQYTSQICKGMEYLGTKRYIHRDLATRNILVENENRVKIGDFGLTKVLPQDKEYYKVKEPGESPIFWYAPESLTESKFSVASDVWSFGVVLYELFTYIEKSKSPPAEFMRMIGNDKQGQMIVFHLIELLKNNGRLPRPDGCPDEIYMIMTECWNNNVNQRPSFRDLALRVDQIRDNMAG
Summary of the method: as §1

IC50 ([1]; Table D1) [nM]	IC50 ([2]; Table D1) [nM]	IC50 ([3]; Table D1) [nM]	IC50 ([4]; Table D1) [nM]	Compound	further results
> 400	41	> 400	> 400	N#Cc1cccnc1N1CCN(C(=O)COc2ccc3cc2CCc2cncc(c2)Nc2ncc(Cl)c(n2)N3)CC1 [Example D238, 2-[4-({[6-Chloro-2,4,8,18,22-pentaazatetracyclo[14.3.1.1(3,7).1(9,13)]docosa-1(20),3(22),4,6,9(21),10,12,16,18-nonaen-12-yl]oxy}acetyl)piperazin-1-yl]nicotinonitrile tris(trifluoroacetate)]	–
> 400	68	> 400	180	O=C(Nc1cccnc1)N1CCC(CCOc2ccc3cc2CCc2cncc(c2)Nc2ncc(Cl)c(n2)N3)CC1 [Example D182, 4-(2-{[6-Chloro-2,4,8,18,22-pentaazatetracyclo[14.3.1.1(3,7).1(9,13)]docosa-1(20),3(22),4,6,9(21),10,12,16,18-nonaen-12-yl]oxy}ethyl)-N-pyridin-3-ylpiperidine-1-carboxamide tris(trifluoroacetate)]	–
> 400	29	> 400	226	N#CCC(=O)N1CCN(C(=O)COc2ccc3cc2CCc2cncc(c2)Nc2ncc(Cl)c(n2)N3)CC1 [Example D269, 3-[4-({[6-Chloro-2,4,8,18,22-pentaazatetracyclo[14.3.1.1(3,7).1(9,13)]docosa-1(20),3(22),4,6,9(21),10,12,16,18-nonaen-12-yl]oxy}acetyl)piperazin-1-yl]-3-oxopropanenitrile bis(trifluoroacetate)]	–
36	16	25	4.9	O=C(Nc1ccccc1)N1CCN(c2ccc3cc2CCc2cccc(c2)Nc2ncc(Cl)c(n2)N3)CC1 [Example D92, 4-[6-Chloro-2,4,8,22-tetraazatetracyclo[14.3.1.1(3,7).1(9,13)]docosa-1(20),3(22),4,6,9(21),10,12,16,18-nonaen-12-yl]-N-phenylpiperazine-1-carboxamide bis(trifluoroacetate)]	–
138	79	160	43	O=C(c1ccccc1)N1CCN(c2ccc3cc2CCc2cccc(c2)Nc2ncc(Cl)c(n2)N3)CC1 [Example D94, 12-(4-Benzoylpiperazin-1-yl)-6-chloro-2,4,8,22-tetraazatetracyclo[14.3.1.1(3,7).1(9,13)]docosa-1(20),3(22),4,6,9(21),10,12,16,18-nonaene bis(trifluoroacetate)]	–
> 400	60	326	300	O=C(COc1ccc2cc1CCc1cncc(c1)Nc1ncc(Cl)c(n1)N2)N1CCN(c2ccncc2)CC1 [Example D243, 6-Chloro-12-[2-oxo-2-(4-pyridin-4-ylpiperazin-1-yl)ethoxy]-2,4,8,18,22-pentaazatetracyclo[14.3.1.1(3,7).1(9,13)]docosa-1(20),3(22),4,6,9(21),10,12,16,18-nonaene tris(trifluoroacetate)]	–
64	18	82	15	Cc1cc(C(=O)N2CCC[C@@H](CC(=O)Nc3ccc4cc3CCc3cncc(c3)Nc3ncc(Cl)c(n3)N4)C2)no1 [Example D208, N-[6-Chloro-2,4,8,18,22-pentaazatetracyclo[14.3.1.1(3,7).1(9,13)]docosa-1(20),3(22),4,6,9(21),10,12,16,18-nonaen-12-yl]-2-{(3S)-1-[(5-methylisoxazol-3-yl)carbonyl]piperidin-3-yl}acetamide bis(trifluoroacetate)]	–
> 400	130	> 400	> 400	Cc1csc(NC(=O)N2CCC(CCOc3ccc4cc3CCc3cncc(c3)Nc3ncc(Cl)c(n3)N4)CC2)c1 [Example D172, 4-(2-{[6-Chloro-2,4,8,18,22-pentaazatetracyclo[14.3.1.1(3,7).1(9,13)]docosa-1(20),3(22),4,6,9(21),10,12,16,18-nonaen-12-yl]oxy}ethyl)-N-(4-methyl-2-thienyl)piperidine-1-carboxamide bis(trifluoroacetate)]	–
> 400	43	> 400	49	O=C(COc1ccc2cc1CCc1cncc(c1)Nc1ncc(Cl)c(n1)N2)N1CCN(c2noc3ccccc23)CC1 [Example D250, 12-{2-[4-(1,2-Benzisoxazol-3-yl)piperazin-1-yl]-2-oxoethoxy}-6-chloro-2,4,8,18,22-pentaazatetracyclo[14.3.1.1(3,7).1(9,13)]docosa-1(20),3(22),4,6,9(21),10,12,16,18-nonaene tris(trifluoroacetate)]	–
> 400	10	> 400	71	O=C(Nc1ccccc1)N1CCC(CCOc2ccc3cc2CCc2cncc(c2)Nc2ncc(Cl)c(n2)N3)CC1 [Example D162, 4-(2-{[6-Chloro-2,4,8,18,22-pentaazatetracyclo[14.3.1.1(3,7).1(9,13)]docosa-1(20),3(22),4,6,9(21),10,12,16,18-nonaen-12-yl]oxy}ethyl)-N-phenylpiperidine-1-carboxamide bis(trifluoroacetate)]	–

Second part, the compound before the results:

Compound	IC50 ([1]; Table D1) [nM]	IC50 ([2]; Table D1) [nM]	IC50 ([3]; Table D1) [nM]	IC50 ([4]; Table D1) [nM]	further results
CC(=O)N1CCC[C@H](CC(=O)Nc2ccc3cc2CCc2cccc(c2)Nc2ncc(Cl)c(n2)N3)C1 [Example D201, 2-[(3R)-1-Acetylpiperidin-3-yl]-N-[6-chloro-2,4,8,22-tetraazatetracyclo[14.3.1.1(3,7).1(9,13)]docosa-1(20),3(22),4,6,9(21),10,12,16,18-nonaen-12-yl]acetamide trifluoroacetate]	29	19	35	10	–
O=C(Cc1ccco1)Nc1ccc2cc1CCc1cccc(c1)Nc1ncc(Cl)c(n1)N2 [Example C36, N-[6-Chloro-2,4,8,22-tetraazatetracyclo[14.3.1.1(3,7).1(9,13)]docosa-1(20),3(22),4,6,9(21),10,12,16,18-nonaen-12-yl]-2-(2-furyl)acetamide trifluoroacetate]	–	–	–	–	IC50 [1]: 663 nM; IC50 [2]: 33 nM; IC50 [3]: 103 nM; IC50 [4]: 42 nM
O=C(Nc1cc2cc(c1)Nc1nc(ncc1Cl)Nc1cccc(c1)CC2)C1CCC1 [Example B211, N-[6-Chloro-2,4,8,22-tetraazatetracyclo[14.3.1.1(3,7).1(9,13)]docosa-1(20),3(22),4,6,9(21),10,12,16,18-nonaen-11-yl]cyclobutanecarboxamide trifluoroacetate]	–	–	–	–	IC50 ([1]; Table B1): 135 nM; IC50 ([2]; Table B1): 56 nM; IC50 ([3]; Table B1): 191 nM; IC50 ([4]; Table B1): 20 nM
Clc1cnc2nc1Nc1cccc(c1)OCCc1cc(CN3CCNCC3)cc(c1)N2 [Example D191, 6-Chloro-19-(piperazin-1-ylmethyl)-14-oxa-2,4,8,23-tetraazatetracyclo[15.3.1.1(3,7).1(9,13)]tricosa-1(21),3(23),4,6,9(22),10,12,17,19-nonaene tris(trifluoroacetate)]	5.7	34	8.9	1.4	–
O=C(Cn1c(=O)oc2c3cc(cc21)Nc1nc(ncc1Cl)Nc1cccc(c1)CC3)N1CCN(c2ccccc2)CC1 [Example D188, 4-Chloro-20-[2-oxo-2-(4-phenylpiperazin-1-yl)ethyl]-18-oxa-2,6,8,20,25-pentaazapentacyclo[14.6.1.1(3,7).1(9,13).0(17,21)]pentacosa-1(23),3(25),4,6,9(24),10,12,16,21-nonaen-19-one bis(trifluoroacetate)]	79	32	> 1000	32	–
O=C(Cc1c[nH]cn1)Nc1ccc2cc1CCc1cccc(c1)Nc1ncc(Cl)c(n1)N2 [Example C33, N-[6-Chloro-2,4,8,22-tetraazatetracyclo[14.3.1.1(3,7).1(9,13)]docosa-1(20),3(22),4,6,9(21),10,12,16,18-nonaen-12-yl]-2-(1H-imidazol-4-yl)acetamide bis(trifluoroacetate)]	–	–	–	–	IC50 [1]: 733 nM; IC50 [2]: 17 nM; IC50 [3]: 217 nM; IC50 [4]: 35 nM
O=C(C[C@@H]1CCN(c2nc3cccnc3o2)C1)Nc1ccc2cc1CCc1cncc(c1)Nc1ncc(Cl)c(n1)N2 [Example D140, N-[6-Chloro-2,4,8,18,22-pentaazatetracyclo[14.3.1.1(3,7).1(9,13)]docosa-1(20),3(22),4,6,9(21),10,12,16,18-nonaen-12-yl]-2-[(3S)-1-[1,3]oxazolo[5,4-b]pyridin-2-ylpyrrolidin-3-yl]acetamide tris(trifluoroacetate)]	> 1000	8.6	226	83	–
O=C(Cc1coc2ccccc12)Nc1ccc2cc1CCc1cccc(c1)Nc1ncc(Cl)c(n1)N2 [Example C47, 2-(1-Benzofuran-3-yl)-N-[6-chloro-2,4,8,22-tetraazatetracyclo[14.3.1.1(3,7).1(9,13)]docosa-1(20),3(22),4,6,9(21),10,12,16,18-nonaen-12-yl]acetamide trifluoroacetate]	–	–	–	–	IC50 [1]: 1140 nM; IC50 [2]: 67 nM; IC50 [3]: 300 nM; IC50 [4]: 134 nM
Clc1cnc2nc1Nc1cccc(c1)OCCc1cc(CN3CCOCC3)cc(c1)N2 [Example D189, 6-Chloro-19-(morpholin-4-ylmethyl)-14-oxa-2,4,8,23-tetraazatetracyclo[15.3.1.1(3,7).1(9,13)]tricosa-1(21),3(23),4,6,9(22),10,12,17,19-nonaene bis(trifluoroacetate)]	7.3	7.6	5.2	0.5	–
